Experimental data reported in US9399638B2, “Substituted pyridine compounds as CRAC modulators” (LUPIN LIMITED, priority 2012, dated 2016).
pIC50: −log10 of the molar value.

The molecules below were run on IL-2 secretion by Jurkat T cells (assay: Inhibition of IL-2 secretion). Conditions: Homo sapiens; Jurkat T cells stimulated with PHA, 20 to 24 hours, IL-2 by ELISA.
Type: cell-based
Procedure: The CRAC channel modulatory activity of the compounds were thus evaluated by measuring the secretion of IL-2 by antigen stimulated T-cells in vitro. Alternatively, such activity can also be evaluated by assay methods known to one skilled in the art.
Inhibition of IL-2 secretion: Jurkat T cells were seeded at a density of 0.5 to 1 million cells per well in RPMI medium. Test compounds from this invention were added to the cells at different concentrations. This was followed by the addition of PHA, a T cell mitogen after 10 minutes. The cells were then incubated for 20 to 24 hours in a CO2 incubator at 37° C. After incubation with the compounds, cells were centrifuged, the supernatant was collected and processed for ELISA to quantitate the amount of IL-2 secreted. A commercial ELISA kit (R&D Systems, Inc. Minneapolis, Minn., USA) was used to estimate the IL-2 concentrations. Amount of IL-2 secreted by cells stimulated with PHA was considered as a 100% maximal signal and the decrease in amount of IL-2 secreted by cells treated with the test compounds was expressed as percent inhibition of the maximal signal. The dose response data was analyzed using 4-parametric sigmoidal dose response (variable slope) curve—fit.

Row | Structure (SMILES) | pIC50
1 | CCc1ncc(-c2nn(C)c(=O)o2)cc1-c1ccc(NCc2c(F)cccc2F)cn1 [Example 40, 5-(5-((2,6-Difluorobenzyl)amino)-2′-ethyl-[2,3′-bipyridin]-5′-yl)-3-methyl-1,3,4-oxadiazol-2(3H)-one] | 6.00 to 7.00
2 | CCc1ncc(-c2nn(C)c(=O)o2)cc1-c1ccc(NCc2c(F)cccc2F)nc1 [Example 41A, 5-(6′-((2,6-Difluorobenzyl)amino)-2-ethyl-[3,3′-bipyridin]-5-yl)-3-methyl-1,3,4-oxadiazol-2(3H)-one] | < 6.00
3 | CCc1ncc(-c2nn(C)c(=O)o2)cc1-c1cc(C)c(NC(=O)c2c(F)cccc2F)cn1 [Example 41B, N-(2′-Ethyl-4-methyl-5′-(4-methyl-5-oxo-4,5-dihydro-1,3,4-oxadiazol-2-yl)-[2,3′-bipyridin]-5-yl)-2,6-difluorobenzamide] | 6.00 to 7.00
4 | CCc1ncc(-c2nn(C)c(=O)o2)cc1-c1ccc(C(=O)Nc2c(F)cccc2F)o1 [Example 44, N-(2,6-Difluorophenyl)-5-(2-ethyl-5-(4-methyl-5-oxo-4,5-dihydro-1,3,4-oxadiazol-2-yl)pyridin-3-yl)furan-2-carboxamide] | < 6.00
5 | Cn1nc(-c2cnc(C3CC3)c(-c3ccc(C(=O)Nc4c(F)cccc4F)o3)c2)oc1=O [Example 45, 5-(2-Cyclopropyl-5-(4-methyl-5-oxo-4,5-dihydro-1,3,4-oxadiazol-2-yl)pyridin-3-yl)-N-(2,6-difluorophenyl)furan-2-carboxamide] | < 6.00
6 | CCc1ncc(-c2nn(C)c(=O)o2)cc1-c1ccc(NC(=O)c2c(F)cncc2F)cc1 [Example 46, N-(4-(2-Ethyl-5-(4-methyl-5-oxo-4,5-dihydro-1,3,4-oxadiazol-2-yl)pyridin-3-yl)phenyl)-3,5-difluoroisonicotinamide] | 6.00 to 7.00
7 | CCc1ncc(-c2nn(C)c(=O)o2)cc1-c1ccc(NC(=O)c2c(C)cccc2F)cc1 [Example 47, N-(4-(2-Ethyl-5-(4-methyl-5-oxo-4,5-dihydro-1,3,4-oxadiazol-2-yl)pyridin-3-yl)phenyl)-2-fluoro-6-methylbenzamide] | 6.00 to 7.00
8 | CCc1ncc(-c2nn(C)c(=O)o2)cc1-c1ccc(NC(=O)c2c(F)cccc2Cl)cc1 [Example 48, 2-Chloro-N-(4-(2-ethyl-5-(4-methyl-5-oxo-4,5-dihydro-1,3,4-oxadiazol-2-yl)pyridin-3-yl)phenyl)-6-fluorobenzamide] | 6.00 to 7.00
9 | CCc1ncc(-c2nn(C)c(=O)o2)cc1-c1ccc(NC(=O)c2snnc2C)cc1 [Example 49, N-(4-(2-Ethyl-5-(4-methyl-5-oxo-4,5-dihydro-1,3,4-oxadiazol-2-yl)pyridin-3-yl)phenyl)-4-methyl-1,2,3-thiadiazole-5-carboxamide] | 6.00 to 7.00
10 | CCc1ncc(-c2nn(C)c(=O)o2)cc1-c1ccc(NC(=O)c2c(C)noc2C)cc1 [Example 50, N-(4-(2-Ethyl-5-(4-methyl-5-oxo-4,5-dihydro-1,3,4-oxadiazol-2-yl)pyridin-3-yl)phenyl)-3,5-dimethylisoxazole-4-carboxamide] | < 6.00
11 | CCc1ncc(-c2nn(C)c(=O)o2)cc1-c1ccc(NC(=O)c2ccncc2C)cc1 [Example 51, N-(4-(2-Ethyl-5-(4-methyl-5-oxo-4,5-dihydro-1,3,4-oxadiazol-2-yl)pyridin-3-yl)phenyl)-3-methylisonicotinamide] | < 6.00
12 | CCc1ncc(-c2nn(C)c(=O)o2)cc1-c1cnc(NC(=O)c2c(F)cccc2F)cn1 [Example 53, 2,6-Difluoro-N-(5-(2-ethyl-5-(4-methyl-5-oxo-4,5-dihydro-1,3,4-oxadiazol-2-yl)pyridin-3-yl)pyrazin-2-yl)benzamide] | 6.00 to 7.00
13 | Cc1ncc(-c2nn(C)c(=O)o2)cc1-c1cnc(NC(=O)c2c(F)cccc2F)cn1 [Example 55, 2,6-Difluoro-N-(5-(2-methyl-5-(4-methyl-5-oxo-4,5-dihydro-1,3,4-oxadiazol-2-yl)pyridin-3-yl)pyrazin-2-yl)benzamide] | 6.00 to 7.00
14 | CNc1ncc(-c2nn(C)c(=O)o2)cc1-c1cnc(NC(=O)c2c(F)cccc2F)cn1 [Example 56, 2,6-Difluoro-N-(5-(5-(4-methyl-5-oxo-4,5-dihydro-1,3,4-oxadiazol-2-yl)-2-(methylamino)pyridin-3-yl)pyrazin-2-yl)benzamide] | < 6.00

The next lines start with the values.

Row | pIC50 | Structure (SMILES)
15 | 6.00 to 7.00 | Cc1nnsc1C(=O)Nc1ccc(-c2cc(-c3nn(C)c(=O)o3)cnc2C2CC2)cc1 [Example 28, N-(4-(2-Cyclopropyl-5-(4-methyl-5-oxo-4,5-dihydro-1,3,4-oxadiazol-2-yl)pyridin-3-yl)phenyl)-4-methyl-1,2,3-thiadiazole-5-carboxamide]
16 | > 7.00 | CCc1ncc(-c2nn(C)c(=O)o2)cc1-c1ccc(NC(=O)c2c(F)cccc2F)cc1C [Example 29, N-(4-(2-Ethyl-5-(4-methyl-5-oxo-4,5-dihydro-1,3,4-oxadiazol-2-yl)pyridin-3-yl)-3-methylphenyl)-2,6-difluorobenzamide]
17 | > 7.00 | CCc1ncc(-c2nn(C)c(=O)o2)cc1-c1ccc(NC(=O)c2c(F)cccc2F)nc1 [Example 30, N-(2′-ethyl-5′-(4-methyl-5-oxo-4,5-dihydro-1,3,4-oxadiazol-2-yl)-[3,3′-bipyridin]-6-yl)-2,6-difluorobenzamide]
18 | 6.00 to 7.00 | CCc1ncc(-c2nn(C)c(=O)o2)cc1-c1ccc(NC(=O)c2c(F)cccc2F)cn1 [Example 31, N-(2′-ethyl-5′-(4-methyl-5-oxo-4,5-dihydro-1,3,4-oxadiazol-2-yl)-[2,3′-bipyridin]-5-yl)-2,6-difluorobenzamide]
19 | > 7.00 | Cc1cc(NC(=O)c2c(F)cccc2F)ccc1-c1cc(-c2nn(C)c(=O)o2)cnc1C1CC1 [Example 32, N-(4-(2-Cyclopropyl-5-(4-methyl-5-oxo-4,5-dihydro-1,3,4-oxadiazol-2-yl)pyridin-3-yl)-3-methylphenyl)-2,6-difluorobenzamide]
20 | > 7.00 | Cn1nc(-c2cnc(C3CC3)c(-c3cnc(NC(=O)c4c(F)cccc4F)cn3)c2)oc1=O [Example 33, N-(5-(2-Cyclopropyl-5-(4-methyl-5-oxo-4,5-dihydro-1,3,4-oxadiazol-2-yl)pyridin-3-yl)pyrazin-2-yl)-2,6-difluorobenzamide]
21 | 6.00 to 7.00 | Cn1nc(-c2cnc(C3CC3)c(-c3cnc(NC(=O)c4c(F)cccc4Cl)cn3)c2)oc1=O [Example 34, 2-Chloro-N-(5-(2-cyclopropyl-5-(4-methyl-5-oxo-4,5-dihydro-1,3,4-oxadiazol-2-yl)pyridin-3-yl)pyrazin-2-yl)-6-fluorobenzamide]
22 | > 7.00 | Cn1nc(-c2cnc(C3CC3)c(-c3ccc(NC(=O)c4c(F)cccc4F)cn3)c2)oc1=O [Example 35, N-(2′-Cyclopropyl-5′-(4-methyl-5-oxo-4,5-dihydro-1,3,4-oxadiazol-2-yl)-[2,3′-bipyridin]-5-yl)-2,6-difluorobenzamide]
23 | > 7.00 | Cn1nc(-c2cnc(C3CC3)c(-c3ccc(NC(=O)c4c(F)cccc4F)nc3)c2)oc1=O [Example 36, N-(2′-Cyclopropyl-5′-(4-methyl-5-oxo-4,5-dihydro-1,3,4-oxadiazol-2-yl)-[3,3′-bipyridin]-6-yl)-2,6-difluorobenzamide]
24 | > 7.00 | Cn1nc(-c2cnc(C(F)(F)F)c(-c3cnc(NC(=O)c4c(F)cccc4F)cn3)c2)oc1=O [Example 37, 2,6-Difluoro-N-(5-(5-(4-methyl-5-oxo-4,5-dihydro-1,3,4-oxadiazol-2-yl)-2-(trifluoromethyl)pyridine-3-yl)pyrazin-2-yl)benzamide]
25 | 6.00 to 7.00 | Cn1nc(-c2cnc(C(F)(F)F)c(-c3ccc(NC(=O)c4c(F)cccc4F)nc3)c2)oc1=O [Example 38, 2,6-Difluoro-N-(5′-(4-methyl-5-oxo-4,5-dihydro-1,3,4-oxadiazol-2-yl)-2′-(trifluoromethyl)-[3,3′-bipyridin]-6-yl)benzamide]
26 | 6.00 to 7.00 | Cn1nc(-c2cnc(C(F)(F)F)c(-c3ccc(NC(=O)c4c(F)cccc4F)cn3)c2)oc1=O [Example 39, 2,6-Difluoro-N-(5′-(4-methyl-5-oxo-4,5-dihydro-1,3,4-oxadiazol-2-yl)-2′-(trifluoromethyl)-[2,3′-bipyridin]-5-yl)benzamide]
27 | > 7.00 | CCc1ncc(-c2nn(C)c(=O)o2)cc1-c1cnc(NC(=O)c2c(F)cccc2F)cc1C [Example 41]
28 | > 7.00 | Cn1nc(-c2cnc(C3CC3)c(-c3ccc(C(=O)Nc4c(F)cccc4Cl)s3)c2)oc1=O [Example 42, N-(2-Chloro-6-fluorophenyl)-5-(2-cyclopropyl-5-(4-methyl-5-oxo-4,5-dihydro-1,3,4-oxadiazol-2-yl)pyridin-3-yl)thiophene-2-carboxamide]
29 | > 7.00 | Cc1cnccc1NC(=O)c1ccc(-c2cc(-c3nn(C)c(=O)o3)cnc2C2CC2)s1 [Example 43, 5-(2-Cyclopropyl-5-(4-methyl-5-oxo-4,5-dihydro-1,3,4-oxadiazol-2-yl)pyridin-3-yl)-N-(3-methylpyridin-4-yl)thiophene-2-carboxamide]
30 | > 7.00 | CCc1ncc(-c2nn(C)c(=O)o2)cc1-c1cnc(NC(=O)c2c(F)cccc2Cl)cn1 [Example 54, 2-Chloro-N-(5-(2-ethyl-5-(4-methyl-5-oxo-4,5-dihydro-1,3,4-oxadiazol-2-yl)pyridin-3-yl)pyrazin-2-yl)-6-fluorobenzamide]
31 | > 7.00 | CCc1ncc(-c2nn(C)c(=O)o2)cc1-c1ccc(C(=O)Nc2c(F)cccc2F)s1 [Example 57, N-(2,6-Difluorophenyl)-5-(2-ethyl-5-(4-methyl-5-oxo-4,5-dihydro-1,3,4-oxadiazol-2-yl)pyridin-3-yl)thiophene-2-carboxamide]
